# According to patent EP4759807A1, “PROTEOLYSIS TARGETING CHIMERA COMPOUND FOR DEGRADING IRAK4 AND USE THEREOF” (Shenzhen Zhongge Biological Technology Co., Ltd., priority 2023, dated 2025):
# Experiments:
# IRAK4 [1] = molecular target: T1, IRAK4 (Homo sapiens, UniProt Q9NWZ3); assay: WB detection of proteolysis (Western Blot, THP-1 cells); assay type: cell-based; conditions: Western Blot, THP-1 cells, 24 h
# T1 sequence (Q9NWZ3 1-460): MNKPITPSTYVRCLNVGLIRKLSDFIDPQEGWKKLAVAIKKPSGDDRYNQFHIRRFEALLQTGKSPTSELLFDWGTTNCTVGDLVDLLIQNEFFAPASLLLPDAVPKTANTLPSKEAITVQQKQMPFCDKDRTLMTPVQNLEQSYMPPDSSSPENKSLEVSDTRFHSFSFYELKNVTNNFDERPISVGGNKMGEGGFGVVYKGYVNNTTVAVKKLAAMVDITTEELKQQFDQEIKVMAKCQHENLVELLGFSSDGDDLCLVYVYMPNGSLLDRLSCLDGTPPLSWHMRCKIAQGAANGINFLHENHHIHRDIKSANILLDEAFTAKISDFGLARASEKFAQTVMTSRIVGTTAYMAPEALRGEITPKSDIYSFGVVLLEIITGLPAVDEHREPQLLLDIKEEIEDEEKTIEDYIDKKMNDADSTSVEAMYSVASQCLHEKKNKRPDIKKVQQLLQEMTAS
# Method in brief: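 IRAK4 level in RIPA lysates read by Western blot with Odyssey imaging; values from bell-shaped non-linear fit with two four-parameter sections (Plateau1, Plateau2, Dip, LogEC50_1/2, nH1/2).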
# [2] = system: IFN-γ, IL-1β, IL-6, IL-10, IL-12p70, TNF-α and IL-23 secretion by hPBMC; assay: Inhibition of LPS-induced secretion of multiple cytokines by human-derived PBMC (MSD detection); assay type: cell-based; conditions: 8 h compound, then LPS 2 ng/mL 16 h; compared with KT474
# Experimental: Experiment materials: Human-derived peripheral blood mononuclear cells (hPBMC) were provided by Hemacare Donor Center.
# Thawing and plating PBMCs: The frozen PBMC was removed from liquid nitrogen, thawed in a 37°C water bath kettle, then resuspended with 10 mL of complete medium, and centrifuged at 350 g at room temperature for 5 min, and the supernatant was discarded. The cells were resuspended with 5 mL of complete medium, and the cells were counted. The cells were diluted to 2 × 10^6/mL based on the counting results, and 0.1 mL (2 × 10^5 cells) was added to each well of the 96-well plate.
# After uniform mixing, incubation was performed in an incubator at 37°C and 5% CO2 for 8 h.
# LPS induction: After 8 h, 50 µL of LPS was added to all wells to a final concentration of 2 ng/mL. After uniform mixing, incubation was further performed in an incubator at 37°C and 5% CO2 for 16 h. […]
# MSD detection: The buffer was added to the freeze-dried human inflammatory factor standard mixture to prepare a highest concentration standard (standard 1), and then serial 4-fold dilutions were performed and a standard with a concentration of 0 was prepared (a total of 10 concentrations). […] The plate was washed 3 times, and then 150 µL of 2× reading buffer was added and the plate was read using an MSD instrument.
# IRAK4 [3] = molecular target: T2, IRAK4 (Mus musculus, UniProt Q8R4K2); conditions: Balb/c mice, 24 h
# T2 sequence (Q8R4K2 1-459): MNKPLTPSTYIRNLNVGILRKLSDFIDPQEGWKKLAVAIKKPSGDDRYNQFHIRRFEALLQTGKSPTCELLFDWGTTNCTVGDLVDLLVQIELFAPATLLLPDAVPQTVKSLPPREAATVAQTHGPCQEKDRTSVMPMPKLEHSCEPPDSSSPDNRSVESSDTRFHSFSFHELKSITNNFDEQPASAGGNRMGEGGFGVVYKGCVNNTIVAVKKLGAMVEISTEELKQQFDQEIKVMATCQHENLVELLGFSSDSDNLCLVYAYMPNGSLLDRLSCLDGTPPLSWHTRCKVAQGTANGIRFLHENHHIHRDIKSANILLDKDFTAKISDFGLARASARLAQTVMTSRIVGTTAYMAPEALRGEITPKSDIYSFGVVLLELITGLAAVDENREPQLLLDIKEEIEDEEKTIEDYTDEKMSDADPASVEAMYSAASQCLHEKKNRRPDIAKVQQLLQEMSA
# Experimental: Experiment materials: Female Balb/c mice, 6-8 weeks old, 18-20 grams were used in the experiment and were provided by Vital River Laboratory Animal Technology Co., Ltd.
# Experimental method: The experiment started after the experimental animals were acclimated to the animal facility environment for 3 days. […] After 24 h, the animals were euthanized, and whole blood and spleen tissue were collected. The whole blood was temporarily placed on wet ice for subsequent PBMC extraction, and the spleen tissue was quickly placed in dry ice. PBMC extraction: 1.5 ml of red blood cell lysis buffer was added to the whole blood, and the obtained mixture was tapped with fingers for mixing, placed at room temperature in the dark for 5 min, and centrifuged at 400 g for 5 min, and the supernatant was discarded. The above steps were repeated twice. Then, 1.5 ml of DPBS was added and mixed uniformly. The mixture was centrifuged at 400 g for 5 min, and the obtained precipitate was PBMC. The PBMC was stored in a -80°C refrigerator for subsequent Western blot analysis. PBMC sample processing: The PBMC samples were placed on wet ice. 50 µL of lysis buffer was separately added to lyse the samples for 30 min, and the mixture was centrifuged at 12500 rpm for 15 min. The protein was quantified by the BCA method. […] The protein was quantified by BCA method. […]
structure (smiles),measurement,setting,value
Cn1c(=O)n(C2CCC(=O)NC2=O)c2cccc(N3CCC(N4CCN(C[C@H]5CC[C@H](n6cc(-n7cc(-c8cnn9ccc(N%10CCC[C@H](O)C%10)nc89)nn7)c(C(F)F)n6)CC5)CC4)CC3)c21 (some centres unmarked) [Example 146],DC50,IRAK4 [1]; read-out: DC50,< 0.01 µM
same,Dmax,IRAK4 [1]; read-out: Dmax,> 70%
same,ability to inhibit the secretion of multiple cytokines by human-derived PBMC,[2],significantly better than that of positive reference KT474
same,expression level of IRAK4 protein in the spleen and PBMC,"IRAK4 [3]; single oral dose 10, 30, 100 mg/kg, compared with the blank control group",significantly inhibit
same,proteolysis ability for spleen IRAK4,"IRAK4 [3]; single oral dose, three doses of 10, 30, and 100 mpk, compared with KT474",significantly superior to KT474
